Data set [1] is described as follows: Irritation test (reaction time method) against commercially available baby and children's shampoos. The conditions noted are these: 5% in water (reference). The method, then: Cleansing agents 1 and 2 were compared in a test (reaction time method) with various commercially available baby and children's shampoos. The shampoos were diluted down to 50% with water in each case.
A 5% sodium laureth sulfate solution served as a reference.
A Q value of >1.20 denotes an irritating effect; a Q value of <0.8 denotes slight irritation.

A short description of data set [2]: pH of the diluted test solution. The data set is classed as physicochemical. The settings on record: 5% in water.

Consider “sodium laureth sulfate [Reference (SLES, 5% in water)]”, for which the “Reaction time method [Q]” value in data set [1] is on record as 1.00. This substance yielded a pH in data set [2] of 7.2.

The values are drawn from patent publication US9216147B2, “Mild cosmetic cleansing composition” (Henkel AG & Co. KGaA, priority 2011, dated 2015).
